These results are taken from ChEMBL document CHEMBL1909544, “Renin inhibitors for the treatment of hypertension: design and optimization of a novel series of tertiary alcohol-bearing piperidines” (Bioorg Med Chem Lett, 2011).

Holding throughout (format): ADME, organism-based
Data set [1] is described as follows: Oral bioavailability in Sprague-Dawley rat at 3 mg/kg. To be noted: in vivo.
A short description of data set [2]: Clearance in Sprague-Dawley rat at 3 mg/kg, po and 5 mg/kg, iv. To be noted: in vivo.
Data set [3] can be described thus: Half life in Sprague-Dawley rat at 3 mg/kg, po and 5 mg/kg, iv. To be noted: in vivo.
Data set [4] can be described thus: Volume of distribution at steady state in Sprague-Dawley rat at 3 mg/kg, po and 5 mg/kg, iv. To be noted: in vivo, read-out: Vdss.
Data set [5] is described as follows: AUC in Sprague-Dawley rat at 3 mg/kg, po. Set-up: dose 3 mg/kg, route oral. Conditions: plasma.
Data set [6] in a line: Half life in Sprague-Dawley rat at 5 mg/kg, iv. Set-up: dose 5 mg/kg, route intravenous. To be noted: in vivo.
A short description of data set [7]: Volume of distribution at steady state in Sprague-Dawley rat at 5 mg/kg, iv. Set-up: dose 5 mg/kg, route intravenous. Conditions: in vivo, read-out: Vdss.
The nature of data set [8]: Oral bioavailability in Sprague-Dawley rat at 0.3 mg/kg. Conditions: in vivo.
Data set [9] in a line: Oral bioavailability in Sprague-Dawley rat at 30 mg/kg. To be noted: in vivo.
The nature of data set [10]: Clearance in Sprague-Dawley rat at 5 mg/kg, iv. Set-up: dose 5 mg/kg, route intravenous. To be noted: in vivo.

By bioavailability is commonly meant the share of a dose that reaches the circulation, judged against a reference dose that is usually intravenous. What is called half-life is the time in which the quantity being followed falls by half. Low readings indicate rapid decline, high ones slow decline. As usually defined, the AUC is the area under the concentration-time curve, a measure of exposure. `O=C([C@H]1CNCC[C@]1(O)c1ccc(F)c(F)c1)N(Cc1cn(Cc2cccc(F)c2)c2cccc(F)c12)C1CC1` (racemic) gave a bioavailability in data set [1] of 37%. For the same compound, in data set [2], the clearance amounted to 93 mL/min/kg. Moreover, the half-life in data set [3] was 9.4 h. For the same compound, in data set [4], the Vd amounted to 48 L/kg. The AUC in [5] came out at 0.34 µM·h.
On to `COCCCc1cc(CN(C(=O)C2CNCCC2(O)c2ccc(F)c(F)c2)C2CC2)cc(OCCOC)c1` (single isomer, unassigned), for which the bioavailability in data set [1] stood at 29%; in data set [8], 17%; in [9], 18%. Also, the half-life in [6] is 1.5 h. Besides, the Vd in [7] came to 5 L/kg. Moreover, the clearance in data set [10] was 36 mL/min/kg.
On to `O=C([C@H]1CNCC[C@]1(OCC(O)CO)c1ccc(F)c(F)c1)N(Cc1cn(Cc2cccc(F)c2)c2cccc(F)c12)C1CC1` (mixture of isomers), for which, in [1], the bioavailability was under 1%. In data set [2], this compound displayed a clearance of 16 mL/min/kg. This compound also had a half-life in [3] of 2.6 h. For the same compound, the Vd in [4] was found to be 0.4 L/kg. Also, the AUC in [5] was determined as 0.04 µM·h.
